According to PMC5447088, “The Hybrid Strategy of Thermoactinospora rubra YIM 77501^T for Utilizing Cellulose as a Carbon Source at Different Temperatures” (Frontiers in Microbiology, 2017):

Tests used:
Assay in all cases: p-nitrophenol release, absorbance at […] nm
Assay type in all cases: biochemical, Thermoactinospora rubra
TrBG1 = details: optimal temperature 40 °C; optimal pH; pNPGlu assumed as the substrate of Table S5
TrBG3 = details: optimal temperature 50 °C; optimal pH; pNPGlu assumed as the substrate of Table S5
TrBG5 = details: optimal temperature 50-60 °C; optimal pH; pNPGlu assumed as the substrate of Table S5
TrBG2 = details: optimal temperature 60 °C; optimal pH; pNPGlu assumed as the substrate of Table S5

O=[N+]([O-])c1ccc(O[C@@H]2O[C@H](CO)[C@@H](O)[C@H](O)[C@H]2O)cc1 [p-nitrophenyl-β-D-glucopyranoside]
Km (TrBG1): 9.8 mM | Km (TrBG3): 5.9 mM | Km (TrBG5): 1.4 mM | Km (TrBG2): 0.31 mM
